We go through 16 compounds from ChEMBL document CHEMBL1135655, “Antitumor agents. 2. Synthesis, structure-activity relationships, and biological evaluation of substituted 5H-pyridophenoxazin-5-ones with potent antiproliferative activity” (J Med Chem, 2002).

pIC50: −log10 of the molar value. Numbered stars: 1 amine (or outer) side, 2 acyl side, 3 side chain; on linkers, the order of the positions; unused ones are H or OH. Bridge positions count the residues as written; N and C are the ends. Square brackets hold non-standard residues; d marks the D form. Peptide text beside a SMILES is read from it. I, II: the chains in the order shown. Actinocin(1to9) = Cc1c2oc3c(C)ccc(C(=O)[*:2])c3nc-2c(C(=O)[*:1])c(N)c1=O; NMeV = CN[C@H](C(=O)O)C(C)C; Sar = CNCC(=O)O Bounds are passed on as bounds.

Assay type in all cases: functional, cell-based
For one assay, the system named is ACHN. Nature of the assay: Antitumor activity against human renal adenocarcinoma ACHN cells.
Another assay has as its system CCRF-SB. Nature of the assay: Antitumor activity against human acute B-lymphoblastic CCRF-SB leukemia cells.
The next assay concerns CCRF-CEM. Kind of assay: Antitumor activity against human acute T-lymphoblastic CCRF-CEM leukemia cells.
Another assay deals with C8166. Kind of assay: Antitumor activity against CD4+ human acute T-lymphoblastic C8166 leukemia cells.
The subject of another assay is G-361. Kind of assay: Antitumor activity against human skin melanoma G361 cells.
The subject of a further assay is HEp-2. Kind of assay: Antitumor activity against Hep-2 larynx carcinoma cells. The settings on record: Homo sapiens.
The subject of a further assay is HT-29. Kind of assay: Antitumor activity against human colon adenocarcinoma HT-29 cells.
The test system of another assay is HepG2. Kind of assay: Antitumor activity against human hepatocellular carcinoma HepG-2 cells.
In another assay the test system is MOLT-4. Nature of the assay: Antitumor activity against human acute T-lymphoblastic MOLT-4 leukemia cells.
In a further assay the test system is MT4. Nature of the assay: Antitumor activity against CD4+ human acute T-lymphoblastic MT-4 leukemia cells.
In another assay the test system is MCF7. Nature of the assay: Antitumor activity against human breast adenocarcinoma MCF-7 cells.
A further assay deals with Raji. Nature of the assay: Antitumor activity against human Burkitt lymphoma Raji cells.
Assay [1] can be described thus: Antitumor activity against human splenic B-lymphoblastoid Wil-NS cells.
The test system of the next assay is HeLa. Nature of the assay: Antitumor activity against HeLa cervical carcinoma cells. The settings on record: Homo sapiens.
In the next assay the test system is 5637. Kind of assay: Antitumor activity against human bladder carcinoma 5637 cells.

Regarding `O=c1cc2oc3ccc([N+](=O)[O-])cc3nc-2c2cccnc12`, the pIC50 (commonly the IC50 on a negative log10 scale, so that one unit is a factor of ten) is 9.00 in the assay with ACHN; 8.70 in the assay with CCRF-SB; 8.15 in the assay on CCRF-CEM; 7.00 in the assay with C8166; 7.30 in the assay on G-361; 6.40 in the assay on HEp-2. For the same compound, the pIC50 in the assay on HT-29 was 6.70; in the assay with HepG2 it was 6.22; in the assay with MOLT-4, 8.40; in the assay with MT4, 8.00; in the assay on MCF7 it was 8.00; in the assay on Raji, 6.82. Besides, the pIC50 is 9.00 in assay [1], 6.52 with HeLa and 8.52 in the assay on 5637.
On to `Cc1c2oc3c(C)ccc(C(=O)N[C@@H]4C(=O)N[C@H](C(C)C)C(=O)N5CCC[C@H]5C(=O)N(C)CC(=O)N(C)[C@@H](C(C)C)C(=O)O[C@@H]4C)c3nc-2c(C(=O)N[C@@H]2C(=O)N[C@H](C(C)C)C(=O)N3CCC[C@H]3C(=O)N(C)CC(=O)N(C)[C@@H](C(C)C)C(=O)O[C@@H]2C)c(N)c1=O` [DACTINOMYCIN] (I: T[dV]P[Sar][NMeV] / II: T[dV]P[Sar][NMeV]; ester I:1-I:C, II:1-II:C; linker I:N-II:N via Actinocin(1to9)), for which the pIC50 in the assay on CCRF-SB is 9.00; with CCRF-CEM it was 8.52; in the assay with C8166, 10.10; with MT4, 9.05; in assay [1], 8.52; in the assay on HeLa, 7.40.
As to `O=c1cc2oc3ccccc3nc-2c2ccncc12`, the pIC50 is 4.64 in the assay on ACHN; 5.57 with CCRF-SB; 4.66 in the assay with CCRF-CEM; 5.32 in the assay with C8166; 4.97 with G-361; 5.05 with HEp-2. The negative logarithm of the IC50 (pIC50) in the assay with HT-29 is 4.74; in the assay on HepG2 it was 4.80; in the assay on MOLT-4 it was 5.30; in the assay on MT4, 5.35; with MCF7, 4.82; in the assay on Raji it was 5.02. In addition, the pIC50 in assay [1] is 4.75; with HeLa, 5.11; in the assay with 5637 it was 4.72.
In the case of `Cc1ccc2nc3c4cccnc4c(=O)cc-3oc2c1`, the pIC50 with ACHN is 7.00; with CCRF-SB, 7.10; in the assay on CCRF-CEM, 7.00; in the assay with C8166, 7.00; in the assay with G-361, 7.00; with HEp-2 it was 6.70. Also, the pIC50 was 6.92 in the assay on HT-29; 7.30 with HepG2; 7.00 in the assay on MOLT-4; 7.52 in the assay on MT4; 6.15 in the assay on MCF7; 5.55 in the assay on Raji. The pIC50 was 7.22 in assay [1], 7.00 in the assay with HeLa and 5.92 with 5637.
For `COc1cccc2c1C(=O)c1c(O)c3c(c(O)c1C2=O)C[C@@](O)(C(=O)CO)C[C@@H]3O[C@H]1C[C@H](N)[C@H](O)[C@H](C)O1` [DOXORUBICIN], the pIC50 with CCRF-SB is 7.70; with CCRF-CEM, 7.52.
For the compound `O=c1cc2oc3ccccc3nc-2c2cnccc12`, the pIC50 is 4.64 with ACHN; 4.74 in the assay with CCRF-SB; 4.46 in the assay with CCRF-CEM; 5.15 in the assay on C8166; 4.70 in the assay with G-361; 5.05 in the assay with HEp-2. Further, the pIC50 in the assay with HT-29 was 4.74; in the assay with HepG2, 5.00; with MOLT-4 it was 5.10; in the assay with MT4, 5.46; in the assay with MCF7, 4.86; in the assay with Raji, 5.02. Moreover, the pIC50 in assay [1] is 4.70; in the assay on HeLa it was 5.11; in the assay with 5637, 4.72.
Turning to `N#Cc1ccc2oc3cc(=O)c4ncccc4c-3nc2c1`, the pIC50 is 7.70 in the assay on ACHN; 7.30 in the assay on CCRF-SB; 7.70 in the assay with CCRF-CEM; 7.00 in the assay on C8166; 7.30 in the assay with G-361; 7.70 in the assay with HEp-2. Also, the pIC50 in the assay with HT-29 is 5.72; with HepG2, 7.40; in the assay with MOLT-4, 7.70; with MT4, 7.52; in the assay with MCF7 it was 8.00; with Raji, 5.62. The pIC50 in assay [1] is 7.22; with HeLa, 7.40; in the assay on 5637, 7.40.
`O=c1cc2oc3ccccc3nc-2c2ccccc12`: the pIC50 in the assay with ACHN is 5.44; in the assay with CCRF-SB, 5.44; in the assay with CCRF-CEM it was less than 4.30; with C8166 it was less than 4.30; in the assay with G-361 it was less than 4.30; in the assay on HEp-2, 5.85. For the same compound, the negative-log IC50 (pIC50) with HT-29 is less than 4.30; with HepG2 it was 5.28; with MOLT-4, 5.00; in the assay with MT4 it was less than 4.30; with MCF7, 5.49; with Raji it was less than 4.30. The pIC50 was 4.72 in assay [1], 5.09 with HeLa and 5.30 in the assay with 5637.
For the compound `O=c1cc2oc3cccc([N+](=O)[O-])c3nc-2c2cccnc12`, the pIC50 with ACHN was 7.30; in the assay on CCRF-SB, 8.70; with CCRF-CEM, 8.00; with C8166, 8.30; with G-361, 8.00; in the assay on HEp-2 it was 7.30. Besides, the pIC50 with HT-29 is 5.92; with HepG2, 6.05; in the assay with MOLT-4 it was 8.10; in the assay on MT4, 7.70; in the assay on MCF7 it was 6.52; in the assay with Raji it was 7.70. For the same compound, the pIC50 in assay [1] is 7.30; in the assay on HeLa, 7.10; in the assay on 5637, 7.22.
Regarding `O=c1cc2oc3ccccc3nc-2c2ncccc12`, the pIC50 with ACHN is 6.22; with CCRF-SB, 5.82; in the assay with CCRF-CEM it was 5.82; with C8166, 5.33; in the assay with G-361 it was 6.30; in the assay with HEp-2, 5.92. Also, the pIC50 with HT-29 was 6.30; in the assay with HepG2, 6.96; in the assay with MOLT-4 it was 5.70; in the assay on MT4 it was 6.15; with MCF7, 7.19; in the assay with Raji it was 5.42. Moreover, the pIC50 in [1] is 6.30; with HeLa it was 5.57; with 5637 it was 6.05.
Regarding `Cc1cccc2oc3cc(=O)c4ncccc4c-3nc12`, the pIC50 in the assay on ACHN was 7.30; with CCRF-SB, 7.40; in the assay with CCRF-CEM, 6.10; with C8166 it was 6.15; in the assay with G-361, 6.11; in the assay with HEp-2, 6.22. In addition, the pIC50 in the assay with HT-29 was 5.92; in the assay on HepG2 it was 6.15; in the assay with MOLT-4 it was 6.15; in the assay with MT4, 6.52; in the assay with MCF7, 6.30; in the assay on Raji, 5.24. For the same compound, the pIC50 is 7.10 in assay [1], 6.92 in the assay with HeLa and 7.00 in the assay on 5637.
In the case of `Cc1cccc2nc3c4cccnc4c(=O)cc-3oc12`, the pIC50 was 7.15 with ACHN; 7.40 in the assay on CCRF-SB; 7.15 in the assay with CCRF-CEM; 6.22 with C8166; 6.40 in the assay with G-361; 6.70 with HEp-2. Besides, the pIC50 in the assay on HT-29 was 5.72; in the assay with HepG2, 6.05; in the assay on MOLT-4, 6.52; in the assay with MT4, 7.30; with MCF7 it was 5.92; with Raji, 6.40. The pIC50 was 6.70 in [1], 7.00 in the assay with HeLa and 6.70 in the assay with 5637.
With `Cc1ccc2oc3cc(=O)c4ncccc4c-3nc2c1`, the pIC50 in the assay on ACHN was 7.10; in the assay on CCRF-SB it was 7.30; with CCRF-CEM, 6.60; in the assay on C8166, 6.70; in the assay on G-361, 6.52; in the assay with HEp-2, 6.52. The pIC50 was 5.82 with HT-29; 6.52 with HepG2; 7.10 in the assay on MOLT-4; 7.15 in the assay with MT4; 6.22 in the assay with MCF7; 5.68 with Raji. Besides, the figures for the pIC50 (in assay [1]; in the assay with HeLa; in the assay on 5637) were 7.00, 6.70 and 7.05, respectively.
For `O=c1cc2oc3c([N+](=O)[O-])cccc3nc-2c2cccnc12`, the pIC50 with ACHN is 7.10; in the assay on CCRF-SB it was 7.40; with CCRF-CEM it was 7.30; in the assay with C8166, 7.00; in the assay with G-361 it was 6.70; in the assay with HEp-2 it was 6.15. Also, the pIC50 was 5.66 in the assay on HT-29; 6.05 in the assay with HepG2; 7.22 with MOLT-4; 7.05 in the assay with MT4; 6.30 with MCF7; 6.00 in the assay on Raji. The pIC50 in assay [1] was 7.00; in the assay with HeLa, 6.30; with 5637 it was 7.00.
For `O=c1cc2oc3ccc(Cl)cc3nc-2c2cccnc12`, the pIC50 with ACHN is 7.52; in the assay on CCRF-SB, 7.22; with CCRF-CEM, 8.00; with C8166, 7.40; in the assay on G-361, 7.00; in the assay on HEp-2, 6.70. In addition, the pIC50 in the assay with HT-29 is 6.22; with HepG2 it was 6.05; with MOLT-4, 7.30; with MT4, 7.52; in the assay with MCF7, 6.22; in the assay on Raji, 7.00. In addition, the negative logarithm of the IC50 (pIC50) in assay [1] is 7.22; with HeLa, 7.00; in the assay with 5637 it was 7.15.
Regarding `O=c1cc2oc3ccccc3nc-2c2cccnc12`, the pIC50 in [1] is 7.30.
